Data reported in PubChem BioAssay (NCI).
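Test compounds were applied to cells in 96-well plates for 48 hours at 5 doses. GI50: concentration for 50% inhibition of growth. TGI marks complete inhibition of growth.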

Columns and labels:
Assay in all cases: NCI tumour cell line growth inhibition, 48 h
CAKI-1 renal = test system: CAKI-1 renal
KM20L2 colon = test system: KM20L2 colon
M19-MEL melanoma = test system: M19-MEL melanoma
NCI/ADR-RES ovarian = test system: NCI/ADR-RES ovarian
P388 leukemia = test system: P388 leukemia
SNB-19 CNS = test system: SNB-19 CNS
ACHN renal = test system: ACHN renal
LXFL 529 NSCLC = test system: LXFL 529 NSCLC
M14 melanoma = test system: M14 melanoma
RXF-631 renal = test system: RXF-631 renal
SR leukemia = test system: SR leukemia
HS 578T breast = test system: HS 578T breast
MDA-MB-231 breast = test system: MDA-MB-231 breast
MDA-MB-435 = test system: MDA-MB-435
MDA-N = test system: MDA-N
PC-3 prostate = test system: PC-3 prostate
T-47D breast = test system: T-47D breast

| Compound | TGI (CAKI-1 renal) | TGI (KM20L2 colon) | TGI (M19-MEL melanoma) | TGI (NCI/ADR-RES ovarian) | TGI (P388 leukemia) | TGI (SNB-19 CNS) | GI50 (CAKI-1 renal) | GI50 (NCI/ADR-RES ovarian) | GI50 (P388 leukemia) | TGI (ACHN renal) | TGI (LXFL 529 NSCLC) | TGI (M14 melanoma) | TGI (RXF-631 renal) | TGI (SR leukemia) | TGI (HS 578T breast) | TGI (MDA-MB-231 breast) | TGI (MDA-MB-435) | TGI (MDA-N) | TGI (PC-3 prostate) | TGI (T-47D breast) |
| --- | --- | --- | --- | --- | --- | --- | --- | --- | --- | --- | --- | --- | --- | --- | --- | --- | --- | --- | --- | --- |
| COC(=O)[C@@H]1c2cc3c(c(O)c2[C@@H](OC)C[C@@]1(C)O)C(=O)c1c(O)cc2c(c1C3=O)OC1O[C@@]2(C)[C@H](O)[C@@H](N(C)C)[C@@H]1O | 0.749 µM | 0.794 µM | 0.88 µM | 4.22 µM | 2.36 µM | 2.37 µM |  |  |  |  |  |  |  |  |  |  |  |  |  |  |
| [Cl-].[Rh+3].c1ccc(-c2ccnc3c2ccc2c(-c4ccccc4)ccnc23)cc1.c1ccc(-c2ccnc3c2ccc2c(-c4ccccc4)ccnc23)cc1.c1ccc(-c2ccnc3c2ccc2c(-c4ccccc4)ccnc23)cc1 | > 100 µM | > 100 µM | > 86.2 µM | > 100 µM | > 71 µM | > 100 µM | 60.5 µM | 73.2 µM | 24.7 µM |  |  |  |  |  |  |  |  |  |  |  |
| C=C(C)C1Cc2c(cc(O)c3c(=O)c4ccccc4n(C)c23)O1 (stereo not given) | 56.7 µM | > 100 µM |  |  |  | 34.5 µM |  |  |  | > 100 µM | > 100 µM | 90.4 µM | > 100 µM | > 100 µM |  |  |  |  |  |  |
| C/C=C(/C)C(=O)O[C@@H]1c2c(C)coc2C[C@H]2CC[C@H](O)[C@H](C)[C@]21C | > 100 µM |  |  | 55.9 µM |  | > 100 µM |  |  |  | > 100 µM |  | > 100 µM |  | > 100 µM | > 100 µM | > 100 µM | > 100 µM | > 100 µM | > 100 µM | > 100 µM |
| O=[N+]([O-])c1ccc(/C=C/c2ccc(N=Nc3ccc(/C=C/c4ccc([N+](=O)[O-])cc4S(=O)(=O)O)c(S(=O)(=O)O)c3)cc2S(=O)(=O)O)c(S(=O)(=O)O)c1 |  |  | > 100 µM | > 100 µM | > 100 µM |  |  |  |  |  |  |  |  |  |  |  |  |  |  |  |
| COc1ccc(/C(Cl)=C(\C=O)c2ccc(F)cc2)cc1 | 41 µM | 20.5 µM | 79.4 µM |  |  | > 100 µM |  |  |  | 35.6 µM | 61.6 µM | > 100 µM | 80.6 µM |  |  |  |  |  |  |  |
| CN(C)CCNCc1c2ccccc2c(CNCCN(C)C)c2ccccc12 |  | 26 µM | > 57.1 µM | > 100 µM | > 56.2 µM |  |  |  |  |  |  |  |  |  |  |  |  |  |  |  |
